Results published in ChEMBL document CHEMBL1201862, “PubChem BioAssay data set” (2004).
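Step 1: Grow cells in 96-well plates. Step 2: Expose to compound for 48 hours at 5 concentrations. Step 3: Interpolate endpoints linearly; if unreached, use highest concentration. GI50 marks 50% less growth.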 The source made the active and inactive calls. Cut-off read from the data, not from the text of the source: active = GI50 up to about 1.1 µM and inactive = higher.

What was measured:
Assay in all cases: growth of human tumour cells (NCI), 48 h
[1] = test system: SK-MEL-28
[2] = test system: UACC-257
[3] = test system: NCI-H460
[4] = test system: HOP-62
[5] = test system: Malme-3M
[6] = test system: MDA-MB-435
[7] = test system: CAKI-1
[8] = test system: EKVX
[9] = test system: A549
[10] = test system: HCT-15
[11] = test system: TK-10
[12] = test system: SF-295
[13] = test system: NCI-H23
[14] = test system: HOP-92
[15] = test system: SK-MEL-2
[16] = test system: UACC-62
[17] = test system: 786-0
[18] = test system: SK-MEL-5
[19] = test system: PC-3
[20] = test system: MOLT-4
[21] = test system: NCI-H226
[22] = test system: SF-539
[23] = test system: T47D
[24] = test system: SR
[25] = test system: ACHN
[26] = test system: RXF 393
[27] = test system: HL-60
[28] = test system: COLO 205
[29] = test system: CCRF-CEM
[30] = test system: M14
[31] = test system: SF-268
[32] = test system: MDA-N
[33] = test system: MCF7
[34] = test system: U-251
[35] = test system: OVCAR-3
[36] = test system: Hs-578T
[37] = test system: OVCAR-5
[38] = test system: OVCAR-4
[39] = test system: DU-145
[40] = test system: SNB-75
[41] = test system: K562
[42] = test system: SN12C
[43] = test system: MDA-MB-231
[44] = test system: IGROV-1
[45] = test system: RPMI-8226
[46] = test system: OVCAR-8
[47] = test system: KM12
[48] = test system: HCT-116
[49] = test system: SW-620
[50] = test system: LOX IMVI
[51] = test system: A498
[52] = test system: NCI/ADR-RES
[53] = test system: BT-549
[54] = test system: HT-29
[55] = test system: UO-31
[56] = test system: SNB-19
[57] = test system: NCI-H522
[58] = test system: SK-OV-3

Measured: GI50

Cn1c(N)c(/N=N/c2ccc(S(N)(=O)=O)cc2)c(=O)n(C)c1=O
inactive: [1] > 100 µM | [2] > 100 µM | [3] > 100 µM | [4] 40.9 µM | [5] > 100 µM | [6] > 100 µM | [7] > 100 µM | [8] > 100 µM | [9] > 100 µM | [11] > 100 µM | [12] > 100 µM | [13] > 100 µM | [14] > 100 µM | [15] > 100 µM | [16] 91.8 µM | [17] 53.1 µM | [18] > 100 µM | [19] > 100 µM | [20] > 100 µM | [21] > 100 µM | [22] > 100 µM | [23] > 100 µM | [24] > 100 µM | [25] 96.8 µM | [26] > 100 µM | [27] > 100 µM | [28] > 100 µM | [29] > 100 µM | [30] > 100 µM | [31] 88.1 µM | [32] > 100 µM | [33] > 100 µM | [34] 45.9 µM | [35] > 100 µM | [36] 22.3 µM | [37] > 100 µM | [38] > 100 µM | [39] > 100 µM | [40] 22.6 µM | [41] > 100 µM | [42] > 100 µM | [43] > 100 µM | [44] > 100 µM | [45] > 100 µM | [46] > 100 µM | [47] > 100 µM | [48] > 100 µM | [49] > 100 µM | [50] > 100 µM | [51] > 100 µM | [52] > 100 µM | [53] > 100 µM | [54] > 100 µM | [55] > 100 µM | [56] 81.8 µM | [57] 80.9 µM | [58] 79.8 µM
> 100 µM: [10]

Cc1ccc(S(=O)(=O)N2CCC(C(=O)O)(c3ccccc3)CC2)cc1
> 100 µM: [10]
inactive: [1] > 100 µM | [2] > 100 µM | [3] > 100 µM | [4] > 100 µM | [5] > 100 µM | [6] > 100 µM | [7] > 100 µM | [8] > 100 µM | [9] > 100 µM | [11] > 100 µM | [12] > 100 µM | [13] > 100 µM | [14] > 100 µM | [15] > 100 µM | [16] > 100 µM | [17] > 100 µM | [18] > 100 µM | [19] > 100 µM | [20] > 100 µM | [21] > 100 µM | [22] > 100 µM | [23] > 100 µM | [24] > 100 µM | [25] > 100 µM | [26] > 100 µM | [27] > 100 µM | [28] > 100 µM | [29] > 100 µM | [30] > 100 µM | [31] > 100 µM | [32] > 100 µM | [33] > 100 µM | [34] > 100 µM | [35] > 100 µM | [36] > 100 µM | [37] > 100 µM | [38] > 100 µM | [39] > 100 µM | [40] > 100 µM | [41] > 100 µM | [42] > 100 µM | [43] > 100 µM | [44] > 100 µM | [45] > 100 µM | [46] > 100 µM | [47] > 100 µM | [48] > 100 µM | [49] > 100 µM | [50] > 100 µM | [51] > 100 µM | [52] > 100 µM | [53] > 100 µM | [54] > 100 µM | [55] > 100 µM | [56] > 100 µM | [57] > 100 µM | [58] > 100 µM

CN(C)CCCN=C(N)N
inactive: [1] > 100 µM | [2] > 100 µM | [3] > 100 µM | [4] > 100 µM | [5] > 100 µM | [6] > 100 µM | [7] > 100 µM | [8] > 100 µM | [9] > 100 µM | [11] > 100 µM | [12] > 100 µM | [13] > 100 µM | [14] > 100 µM | [15] > 100 µM | [16] > 100 µM | [17] > 100 µM | [18] > 100 µM | [19] > 100 µM | [20] > 100 µM | [21] > 100 µM | [22] > 100 µM | [23] > 100 µM | [24] > 100 µM | [25] > 100 µM | [26] > 100 µM | [27] 85.3 µM | [28] > 100 µM | [29] > 100 µM | [30] > 100 µM | [31] > 100 µM | [32] > 100 µM | [33] > 100 µM | [34] > 100 µM | [35] > 100 µM | [36] > 100 µM | [37] > 100 µM | [38] > 100 µM | [39] > 100 µM | [40] > 100 µM | [41] > 100 µM | [42] > 100 µM | [43] > 100 µM | [44] > 100 µM | [45] > 100 µM | [46] > 100 µM | [47] > 100 µM | [48] > 100 µM | [49] > 100 µM | [50] > 100 µM | [51] > 100 µM | [52] > 100 µM | [53] > 100 µM | [54] > 100 µM | [55] > 100 µM | [56] > 100 µM | [57] > 100 µM | [58] > 100 µM
> 100 µM: [10]

Cc1cc(Cc2cc(C)cc(C(C)(C)C)c2O)c(O)c(Cc2cc(C)cc(C(C)(C)C)c2O)c1
active: [18] 1.08 µM | [41] 0.931 µM | [45] 0.724 µM | [57] 0.931 µM
inactive: [1] 4.14 µM | [2] 2.29 µM | [3] 1.57 µM | [4] 2.88 µM | [5] 2 µM | [6] 3.12 µM | [7] 4.08 µM | [8] 2.82 µM | [9] 3.06 µM | [11] 3.03 µM | [12] 3.18 µM | [13] 1.66 µM | [14] 2.24 µM | [15] 2.16 µM | [16] 1.86 µM | [17] 3.15 µM | [19] 2.75 µM | [20] 1.41 µM | [21] 3.24 µM | [22] 2.51 µM | [23] 3.01 µM | [24] 2.54 µM | [25] 3.37 µM | [26] 2.82 µM | [27] 2.51 µM | [28] 4.53 µM | [29] 1.73 µM | [30] 2.64 µM | [31] 1.7 µM | [32] 3.66 µM | [33] 2.34 µM | [34] 2.7 µM | [35] 2.69 µM | [36] 1.67 µM | [37] 3.48 µM | [38] 4.05 µM | [39] 3.4 µM | [40] 4.62 µM | [42] 2.34 µM | [43] 1.79 µM | [44] 3.25 µM | [46] 2.75 µM | [47] 2.91 µM | [48] 1.92 µM | [49] 3.34 µM | [50] 3.1 µM | [51] 2.39 µM | [52] 2.85 µM | [53] 1.87 µM | [54] 2.55 µM | [55] 2.98 µM | [56] 4.11 µM | [58] 3.33 µM
2.24 µM: [10]
